Laboratory results reported in patent US11000033B2, “Ketone or oxime compound, and herbicide” (NISSAN CHEMICAL CORPORATION, priority 2014, dated 2021).

Columns and labels:
Assay type in all cases: in vivo
[1] = test system: Echinochloa oryzacola Vasing.; experiment: Test Example 1: herbicidal activity, application before weed generation in submerged conditions (symbol A); conditions: application herbicide amount 320 g/ha
Summary of the method: (§1)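 Weed control was rated three weeks after treatment on a 0–5 scale, from 5% or lower up to 90% or more. Pre-emergence water-surface application of diluted emulsion at a predetermined rate was made on the day of sowing, in flooded (4 cm water) pots containing rice seedlings, kept at 25–30 °C under glass.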

Monochoria vaginalis = experiment: Test Example 1: herbicidal activity, application before weed generation in submerged conditions (symbol C); conditions: application herbicide amount 320 g/ha
Summary of the method: as §1

Leptochloa chinensis = experiment: Test Example 3: herbicidal effect by foliage application, Wagner pot (symbol D); conditions: application herbicide amount 320 g/ha; for D (Leptochloa chinensis) herbicidal effect grade: Table 24
Summary of the method: (§2)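 Post-emergence, paddy-type test: seedlings 14 d old in shallow-flooded (0.1–0.5 cm) alluvial soil, 25–30 °C greenhouse. Emulsion diluted to target rate, sprayed on leaves. Read-out: visual effect on each species at 3 weeks, per set criteria.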

Cyperus difformis = experiment: Test Example 3: herbicidal effect by foliage application, Wagner pot (symbol E); conditions: application herbicide amount 320 g/ha; for E herbicidal effect grade: Table 24
Summary of the method: as §2

Lolium multiflorum Lam. = experiment: Test Example 4: herbicidal effect by soil treatment (symbol K)
Summary of the method: (§3)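 Seeds were sown in sterilized diluvial soil, covered with about 1.5 cm of soil, and the soil surface was sprayed with a water-diluted emulsion of the compound at a predetermined rate. Plants grew in a greenhouse at 25° C. to 30° C.; effects were scored visually 3 weeks after application.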

Amaranthus retroflexus = experiment: Test Example 4: herbicidal effect by soil treatment (symbol N)
Summary of the method: as §3

Chenopodium album [2] = experiment: Test Example 4: herbicidal effect by soil treatment (symbol O)
Summary of the method: as §3

Galium spurium = experiment: Test Example 4: herbicidal effect by soil treatment (symbol Q)
Summary of the method: as §3

rice = experiment: Test Example 4: effect on crop by soil treatment (symbol b)
Summary of the method: (§4)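 Soil-treatment setup: crop and weed seeds were spot-sown into sterilized diluvial soil, then buried beneath approximately 1.5 cm of it, and the boxes were housed in a 25–30° C. greenhouse.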

wheat [3] = experiment: Test Example 4: effect on crop by soil treatment (symbol e)
Summary of the method: as §4

beet = experiment: Test Example 4: effect on crop by soil treatment (symbol f)
Summary of the method: as §4

rapeseed = experiment: Test Example 4: effect on crop by soil treatment (symbol g)
Summary of the method: as §4

Avena fatua = experiment: Test Example 5: herbicidal effect by foliage application, plastic box (symbol I); conditions: 320 g/ha, 3 weeks after application
Summary of the method: (§5)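 Leaf-applied emulsion, water-diluted to a preset herbicide dose, on two-week-old seedlings raised in a 25° C. to 30° C. greenhouse; injury rated at 3 weeks using earlier criteria.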

Apera spica-venti = experiment: Test Example 5: herbicidal effect by foliage application, plastic box (symbol L); conditions: 320 g/ha, 3 weeks after application
Summary of the method: as §5

Abutilon theophrasti = experiment: Test Example 5: herbicidal effect by foliage application, plastic box (symbol M); conditions: 320 g/ha, 3 weeks after application
Summary of the method: as §5

Chenopodium album [4] = experiment: Test Example 5: herbicidal effect by foliage application, plastic box (symbol O); conditions: 320 g/ha, 3 weeks after application
Summary of the method: as §5

Stellaria media = experiment: Test Example 5: herbicidal effect by foliage application, plastic box (symbol P); conditions: 320 g/ha, 3 weeks after application
Summary of the method: as §5

rice plant = experiment: Test Example 5: effect on crop by foliage application, plastic box (symbol b); conditions: 320 g/ha, 3 weeks after application
Summary of the method: (§6)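 Box culture: sterile diluvial soil, seeds spot-sown, ~1.5 cm cover, raised under glass at 25–30° C.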

wheat [5] = experiment: Test Example 5: effect on crop by foliage application, plastic box (symbol e); conditions: 320 g/ha, 3 weeks after application
Summary of the method: as §6

[6] = application herbicide amount 320 g/ha

Row | SMILES | A (Echinochloa oryzacola Vasing.) herbicidal effect grade [1] | C (Monochoria vaginalis) herbicidal effect grade (Monochoria vaginalis) | D (Leptochloa chinensis) herbicidal effect grade (Leptochloa chinensis) | E herbicidal effect grade (Cyperus difformis) | K: Lolium multiflorum Lam., herbicidal effect grade (Lolium multiflorum Lam.; [6]) | N: Amaranthus retroflexus, herbicidal effect grade (Amaranthus retroflexus; [6]) | O: Chenopodium album, herbicidal effect grade (Chenopodium album [2]; [6]) | Q: Galium spurium, herbicidal effect grade (Galium spurium; [6]) | b: directly sowed rice plant, effect on crop grade (rice; [6]) | e: wheat, effect on crop grade (wheat [3]; [6]) | f: beet, effect on crop grade (beet; [6]) | g: rapeseed, effect on crop grade (rapeseed; [6]) | I: Avena fatua, herbicidal effect grade (Avena fatua) | L: Apera spica-venti, herbicidal effect grade (Apera spica-venti) | M: Abutilon theophrasti, herbicidal effect grade (Abutilon theophrasti) | O: Chenopodium album, herbicidal effect grade (Chenopodium album [4]) | P: Stellaria media, herbicidal effect grade (Stellaria media) | b: directly sowed rice plant, effect on crop grade (rice plant) | e: wheat, effect on crop grade (wheat [5]) | also measured
1 | CCC(=O)CC1CC(O)=C(c2c(C)cc(Br)cc2OC)C1=O (racemic) [14-002] | 4 (Herbicidal ratio of 70% or higher and lower than 90%) | 2 (Herbicidal ratio of 20% or higher and lower than 40%) | 5 (Herbicidal ratio of 90% or more (almost completely withered)) | 5 (Herbicidal ratio of 90% or more (almost completely withered)) | 5 (Herbicidal ratio of 90% or more (almost completely withered)) | 0 (Herbicidal ratio of 5% or lower (almost no effect)) | 0 (Herbicidal ratio of 5% or lower (almost no effect)) | 0 (Herbicidal ratio of 5% or lower (almost no effect)) | 5 (Herbicidal ratio of 90% or more (almost completely withered)) | 3 (Herbicidal ratio of 40% or higher and lower than 70%) | 0 (Herbicidal ratio of 5% or lower (almost no effect)) | 0 (Herbicidal ratio of 5% or lower (almost no effect)) | 5 (Herbicidal ratio of 90% or more (almost completely withered)) | 5 (Herbicidal ratio of 90% or more (almost completely withered)) | 4 (Herbicidal ratio of 70% or higher and lower than 90%) | 0 (Herbicidal ratio of 5% or lower (almost no effect)) | 0 (Herbicidal ratio of 5% or lower (almost no effect)) | 4 (Herbicidal ratio of 70% or higher and lower than 90%) | 3 (Herbicidal ratio of 40% or higher and lower than 70%) | 
2 | CCC(CC1CC(O)=C(c2c(C)cc(C)cc2OC)C1=O)=NOC (mixture of isomers) [13-003] | 5 (Herbicidal ratio of 90% or more (almost completely withered)) | 0 (Herbicidal ratio of 5% or lower (almost no effect)) | 5 (Herbicidal ratio of 90% or more (almost completely withered)) | 5 (Herbicidal ratio of 90% or more (almost completely withered)) | 5 (Herbicidal ratio of 90% or more (almost completely withered)) | 0 (Herbicidal ratio of 5% or lower (almost no effect)) | 0 (Herbicidal ratio of 5% or lower (almost no effect)) | 0 (Herbicidal ratio of 5% or lower (almost no effect)) | 5 (Herbicidal ratio of 90% or more (almost completely withered)) | 0 (Herbicidal ratio of 5% or lower (almost no effect)) | 0 (Herbicidal ratio of 5% or lower (almost no effect)) | 3 (Herbicidal ratio of 40% or higher and lower than 70%) | 5 (Herbicidal ratio of 90% or more (almost completely withered)) | 5 (Herbicidal ratio of 90% or more (almost completely withered)) | 4 (Herbicidal ratio of 70% or higher and lower than 90%) | 0 (Herbicidal ratio of 5% or lower (almost no effect)) | 1 (Herbicidal ratio of 5% or higher and lower than 20%) | 5 (Herbicidal ratio of 90% or more (almost completely withered)) | 5 (Herbicidal ratio of 90% or more (almost completely withered)) | 
3 | CON=C(CC1CC(O)=C(c2c(C)cc(-n3cc(Cl)cn3)cc2C)C1=O)C1CC1 (stereo not shown) [9-007] | 5 (Herbicidal ratio of 90% or more (almost completely withered)) | 0 (Herbicidal ratio of 5% or lower (almost no effect)) | 5 (Herbicidal ratio of 90% or more (almost completely withered)) | 5 (Herbicidal ratio of 90% or more (almost completely withered)) |  |  |  |  |  |  |  |  | 5 (Herbicidal ratio of 90% or more (almost completely withered)) | 5 (Herbicidal ratio of 90% or more (almost completely withered)) | 0 (Herbicidal ratio of 5% or lower (almost no effect)) | 3 (Herbicidal ratio of 40% or higher and lower than 70%) | 3 (Herbicidal ratio of 40% or higher and lower than 70%) | 5 (Herbicidal ratio of 90% or more (almost completely withered)) | 4 (Herbicidal ratio of 70% or higher and lower than 90%) | Herbicidal effect grade, K: Lolium multiflorum Lam. (Lolium multiflorum Lam.; [6]): 5 (Herbicidal ratio of 90% or more (almost completely withered)); Herbicidal effect grade, N: Amaranthus retroflexus (Amaranthus retroflexus; [6]): 0 (Herbicidal ratio of 5% or lower (almost no effect)); Herbicidal effect grade, O: Chenopodium album (Chenopodium album [2]; [6]): 0 (Herbicidal ratio of 5% or lower (almost no effect)); Herbicidal effect grade, Q: Galium spurium (Galium spurium; [6]): 0 (Herbicidal ratio of 5% or lower (almost no effect)); Effect on crop grade, b: directly sowed rice plant (rice; [6]): 5 (Herbicidal ratio of 90% or more (almost completely withered)); Effect on crop grade, e: wheat (wheat [3]; [6]): 0 (Herbicidal ratio of 5% or lower (almost no effect)); Effect on crop grade, f: beet (beet; [6]): 0 (Herbicidal ratio of 5% or lower (almost no effect)); Effect on crop grade, g: rapeseed (rapeseed; [6]): 0 (Herbicidal ratio of 5% or lower (almost no effect))
4 | CON=C(C)CC1CC(OC(=O)c2nc(C)sc2C)=C(c2c(C)cc(C)cc2C)C1=O (stereo not shown) [1-101] |  |  |  |  |  |  |  |  |  |  |  |  |  |  |  |  |  |  |  | Herbicidal effect grade, A: Echinochloa oryzacola Vasing. [1]: 5 (Herbicidal ratio of 90% or more (almost completely withered)); Herbicidal effect grade, C: Monochoria vaginalis (Monochoria vaginalis): 2 (Herbicidal ratio of 20% or higher and lower than 40%); herbicidal effect on D (Leptochloa chinensis), grade 0-5 (Leptochloa chinensis): 5 (Herbicidal ratio of 90% or more (almost completely withered)); herbicidal effect on E, grade 0-5 (Cyperus difformis): 5 (Herbicidal ratio of 90% or more (almost completely withered)); K: Lolium multiflorum Lam., herbicidal effect grade (Lolium multiflorum Lam.; 320 g/ha): 5 (Herbicidal ratio of 90% or more (almost completely withered)); N: Amaranthus retroflexus, herbicidal effect grade (Amaranthus retroflexus; 320 g/ha): 3 (Herbicidal ratio of 40% or higher and lower than 70%); O: Chenopodium album, herbicidal effect grade (Chenopodium album [2]; 320 g/ha): 0 (Herbicidal ratio of 5% or lower (almost no effect)); Q: Galium spurium, herbicidal effect grade (Galium spurium; 320 g/ha): 0 (Herbicidal ratio of 5% or lower (almost no effect)); b: directly sowed rice plant, effect grade on crop (rice; 320 g/ha): 5 (Herbicidal ratio of 90% or more (almost completely withered)); e: wheat, effect grade on crop (wheat [3]; 320 g/ha): 3 (Herbicidal ratio of 40% or higher and lower than 70%); f: beet, effect grade on crop (beet; 320 g/ha): 3 (Herbicidal ratio of 40% or higher and lower than 70%); g: rapeseed, effect grade on crop (rapeseed; 320 g/ha): 5 (Herbicidal ratio of 90% or more (almost completely withered)); I: Avena fatua, herbicidal effect (criteria 0-5) (Avena fatua): 5 (Herbicidal ratio of 90% or more (almost completely withered)); L: Apera spica-venti, herbicidal effect (criteria 0-5) (Apera spica-venti): 5 (Herbicidal ratio of 90% or more (almost completely withered)); M: Abutilon theophrasti, herbicidal effect (criteria 0-5) (Abutilon theophrasti): 5 (Herbicidal ratio of 90% or more (almost completely withered)); O: Chenopodium album, herbicidal effect (criteria 0-5) (Chenopodium album [4]): 3 (Herbicidal ratio of 40% or higher and lower than 70%); P: Stellaria media, herbicidal effect (criteria 0-5) (Stellaria media): 3 (Herbicidal ratio of 40% or higher and lower than 70%); b: directly sowed rice plant, effect on crop (criteria 0-5) (rice plant): 5 (Herbicidal ratio of 90% or more (almost completely withered)); e: wheat, effect on crop (criteria 0-5) (wheat [5]): 5 (Herbicidal ratio of 90% or more (almost completely withered))
